Like-named read-outs stand apart in the source and are kept apart here. *1 amine or outer side, *2 acyl side, *3 side chain or, on linkers, in order; H or OH if unused. Where a SMILES comes first, the peptide text is derived from it. [ ]: non-standard residue; d: D form. The star is where a group is joined. Aib = CC(C)(N)C(=O)O; CO = O=C([*:1])[*:2]; NHiPr = CC(C)N*
Molecular target: WDR5 (Homo sapiens (Human), UniProt P61964)
Test: FP based competitive binding assay to WDR5
Method: Another aspect of the invention is development of a Fluorescent Polarization (FP) based competitive binding assay. […] Next, the millipolarization (mP) values were measured at different time points in order to determine equilibrium duration and stability.
Accordingly, the optimal protein concentrations for the competitive assay was investigated.
All the FP based experiments were performed in MICROFLUOR® 2 Black, “U” Bottom, 96-well Microtiter Plates (ThermoSci.) and FP was measured as mP units in a microplate reader (Tecan Ultra) with excitation at 485 nm and emission at 530 nm. The Kd of the tracers and the IC50 value of the inhibitors were calculated using GraphPad Prism 4 software.
The binding affinities of the synthetic peptides shown in the study were measured using this competitive binding assay. A pre-incubated complex solution of WDR5Δ23 and the tracer in 120 μl assay buffer were added to dilutions of the test compound in 5 μl DMSO, giving final concentrations of WDR5Δ23 and the tracer of 4 nM and 0.6 nM, respectively. […] The plates were incubated with shaking at room temperature. The mP values were measured after five hours of incubation and Ki values were calculated using the equation described previously(31).

[1] = read-out: Binding Affinity to WDR5 (IC50 ± SD), Table 5 peptidomimetics
[2] = 4 nM WDR5Δ23, 0.6 nM 10mer-Thr-FAM tracer, Ki calculated by equation of ref. 31, read-out: Ki ± SD
[3] = 4 nM WDR5Δ23, 0.6 nM 10mer-Thr-FAM tracer, read-out: IC50 ± SD

Row | IC50 [1] [µM] | IC50 [3] [µM] | Molecule | further results
1 | < 1 | – | CCC(CC)(NC(C)=O)C(=O)N[C@@H](CCCNC(=N)N)C(=O)NC1(C(N)=O)CCCC1 [Compound 6G] | –
2 | – | 1.04 ± 0.14 | Ac-SARAEVHLRKS-NH2 [Ac-11mer] | Ki [2]: 0.2 ± 0.03 µM
3 | – | 34 ± 3 | CC(C)C[C@H](NC(=O)[C@H](Cc1c[nH]cn1)NC(=O)[C@@H](NC(=O)[C@H](CCC(=O)O)NC(=O)[C@H](C)NC(=O)[C@H](CCCNC(=N)N)NC(=O)[C@H](C)N)C(C)C)C(=O)N[C@@H](CCCNC(=N)N)C(=O)N[C@@H](CCCCN)C(=O)N[C@@H](CO)C(N)=O [Compound H2N-10mer] | Ki [2]: 7.3 ± 0.7 µM
4 | < 100 | – | C[C@H](NC(=O)[C@H](CCCNC(=N)N)NC(=O)[C@H](C)NC(=O)N(C)C)C(N)=O [Compound 9J] ({NMe2-CO}-Ala-Arg-Ala-NH2) | –
5 | < 1 | – | CCC(CC)NC(=O)[C@H](C)NC(=O)[C@H](CCCNC(=N)N)NC(=O)[C@H](C)NC(C)=O [Compound 7B] | –
6 | – | 125 ± 6 | CC(=O)N[C@@H](C)C(=O)N[C@@H](CCCNC(=N)N)C(N)=O [Ac-2mer, Ac-AR-NH2] (Ac-Ala-Arg-NH2) | Ki [2]: 27 ± 1.4 µM
7 | < 30 | – | CCC(CC)(NC(=O)C(C)C)C(=O)N[C@@H](CCCNC(=N)N)C(=O)N[C@H](C)c1ccccc1 [Compound 11F] | –
8 | < 10 | – | CCC(CC)(NC(=O)c1ccccc1)C(=O)N[C@H](CCCNC(=N)N)C(=O)NC1(C(=O)NC(c2ccccc2)c2ccccc2)CCCC1 [Compound 10J] | –
9 | – | – | Ac-ARAEV-NH2 [Ac-5mer, Ac-ARAEV-NH2] | IC50 (read-out: IC50 ± SD): 0.75 ± 0.1 µM; Ki (read-out: Ki ± SD): 0.16 ± 0.03 µM
10 | – | – | CC(=O)N[C@@H](C)C(=O)N[C@@H](CCCNC(=N)N)C(=O)N(C)[C@@H](C)C(N)=O [Δ1, Ac-AR-(N—Me)A-NH2] | binding to WDR5 (in words): complete loss of its binding to WDR5
11 | < 1 | – | CC[C@H](NC(=O)[C@H](CCCNC(=N)N)NC(=O)C1(NC(C)=O)CCC1)C(N)=O [Compound 6D] | –
12 | – | 30 ± 5 | CC(=O)N[C@@H](C)C(=O)N[C@@H](CCCNC(=N)N)C(=O)N[C@@H](C)C(=O)N(C)C [Δ2b, Ac-ARA-CONMe2] (Ac-Ala-Arg-Ala-NMe2) | Ki [2]: 6.5 ± 1.2 µM; times less potent than Ac-3mer (ratio vs Ac-3mer): 50
13 | < 1 | – | CC(=O)NC(C)(C)C(=O)N[C@@H](CCCNC(=N)N)C(=O)N[C@H](C(N)=O)[C@@H](C)O [Compound 6C] (Ac-[Aib]-Arg-Thr-NH2) | –
14 | – | 0.08 ± 0.003 | CC(=O)N[C@@H](C)C(=O)N[C@@H](CCCNC(=N)N)C(=O)N[C@H](C(N)=O)[C@@H](C)O [Ac-H3-3mer, Ac-ART-NH2] (Ac-Ala-Arg-Thr-NH2) | Ki (read-out: Ki): 0.02 µM; fold increase of binding affinity to WDR5 on acetylation of the free amino group (vs corresponding unacetylated H3 peptide): 1500
15 | < 1 | – | CC(=O)N[C@@H](C)C(=O)N[C@@H](CCCNC(=N)N)C(=O)N[C@@H](C)C(=O)NC(C)C [Compound 7A] (Ac-Ala-Arg-Ala-NHiPr) | –
16 | – | 0.4 ± 0.05 | CC(=O)N[C@@H](C)C(=O)N[C@@H](CCCNC(=N)N)C(=O)N[C@@H](C)C(=O)N[C@@H](CCC(=O)O)C(N)=O [Ac-4mer, Ac-ARAE-NH2] (Ac-ARAE-NH2) | Ki [2]: 0.08 ± 0.01 µM
17 | < 1 | – | CC(=O)NC1(C(=O)N[C@@H](CCCNC(=N)N)C(=O)N[C@H](C(N)=O)C(C)C)CCC1 [Compound 4B] | –
18 | < 5 | – | C[C@H](NC(=O)[C@H](CCCNC(=N)N)NC(=O)[C@H](C)NC(=O)C1CC1)C(N)=O [Compound 9E] | –
19 | < 30 | – | CCC(CC)(NC(=O)C(C)C)C(=O)N[C@@H](CCCNC(=N)N)C(=O)N[C@@H](C)c1ccccc1 [Compound 11G] | –
20 | – | – | C[C@H](N)C(=O)N[C@@H](CCCNC(=N)N)C(=O)N[C@@H](C)C(N)=O [Compound H2N-3mer, H2N-ARA-NH2] (H-Ala-Arg-Ala-NH2) | binding to WDR5 (in words): does not bind to WDR5 up to the concentrations tested
21 | – | 127 ± 12 | C[C@H](N)C(=O)N[C@@H](CCCNC(=N)N)C(=O)N[C@H](C(N)=O)[C@@H](C)O [Compound H3-3mer, H2N-ART-NH2, reference compound] (H-Ala-Arg-Thr-NH2) | Ki [2]: 27.3 ± 2.5 µM
22 | > 5 | – | CCC(CC)(NC(=O)c1ccccc1)C(=O)N[C@@H](CCCNC(=N)N)C(=O)NC1(C(=O)NC(c2ccccc2)c2ccccc2)CCCC1 [Compound 10I] | –
